Entries after “also recorded” stand apart in the source; their conditions may differ. Where two headings read alike, the source gives them in different places.
Key:
[1] = test system: Bacillus circulans beta-galactosidase; conditions: phosphate buffer, 40 °C; read-out: KM,lactose; cited from earlier work
[2] = test system: Metagenome M1 beta-galactosidase (metagenome beta-galactosidase 3J33 as described in EP 2 530 148 A1); assay: Turnover number with lactose as substrate; type: biochemical; conditions: 8 °C
Protocol: To determine the turnover number, the specific activity of the enzymes on lactose at 8 °C was determined. The following formula was used to determine the turnover number: Kcat = (Vmax)/([E]) [s^−1] [formula] • Kcat = turnover number [s^-1] • Vmax = maximum activity [nkat/mg] • [E] = enzyme concentration […]
In Table 9, the calculated turnover numbers of the two beta-galactosidases are depicted. Table 9: Turnover numbers of the beta-galactosidases M1 and P. wynnii (8 °C, lactose as substrate)

[3] = test system: Metagenome M1 beta-galactosidase (metagenome beta-galactosidase 3J33 as described in EP 2 530 148 A1); conditions: 8 °C, read-out: KM,lactose, cited from earlier work
[4] = test system: beta-galactosidase PbGal2A from P. barengoltzii; conditions: read-out: KM,lactose, cited from earlier work
[5] = biological target: T1, P. wynnii beta-galactosidase (SEQ ID NO: 1) (Paenibacillus wynnii, UniProt A0A098MAF9); assay: Determination of KM with lactose as substrate; type: biochemical; conditions: Novo-buffer, 8 °C
Protocol: For the substrate solution 400 mM lactose was dissolved in Novo buffer (the composition of which is depicted in Table 4). The beta-galactosidase activity was determined in a thermo shaker in 1.5 mL reaction tubes at 8°C. The enzyme mix and the lactose solution were preincubated at 8 °C for 12 min. To start the enzymatic reaction 100 µL of the enzyme mix were added to 100 µL lactose solution. The reaction was carried out for 5 min at 8 °C. The reaction was stopped by adding 300 µL 1 M HClO4 to the enzyme-substrate-mix. The mix was kept on ice for 5 min before it was centrifuged at 13 000 rcf and 4 °C for 5 min. 160 µL of the supernatant were transferred to 75 µL 2 M KOH to neutralise the solution. The neutralisation step was checked using pH paper and the pH was adjusted if necessary. […]
The kinetic parameters were determined using the natural substrate lactose. […]
For the determination of the KM values of P. wynnii beta-galactosidase lactose concentrations ranged from 0.76 mM to 97.5 mM. […] The enzyme activities were measured under initial reaction velocity conditions of the enzyme. The reaction times for the initial velocity of the enzymes were determined in previous experiments. The kinetic parameter KM was analysed using the Enzyme Kinetics Module in SigmaPlot 12.5 (Systat Software, Inc., San Jose, USA). […]

[6] = biological target: K. lactis beta-galactosidase (Kluyveromyces lactis, UniProt P00723); conditions: 200 mM galactose, 37 °C, substrate oNPGal; cited from earlier work
[7] = test system: Metagenome M1 beta-galactosidase (metagenome beta-galactosidase 3J33 as described in EP 2 530 148 A1); assay: Influence of galactose on the enzyme activity, lactose assay; type: biochemical; conditions: 8 °C; for Relative enzyme activity: Lactose-Assay
Protocol: (§1) For the substrate solution 400 mM lactose was dissolved in Novo buffer (the composition of which is depicted in Table 4). The beta-galactosidase activity was determined in a thermo shaker in 1.5 mL reaction tubes at 8°C. The enzyme mix and the lactose solution were preincubated at 8 °C for 12 min. To start the enzymatic reaction 100 µL of the enzyme mix were added to 100 µL lactose solution. The reaction was carried out for 5 min at 8 °C. The reaction was stopped by adding 300 µL 1 M HClO4 to the enzyme-substrate-mix. The mix was kept on ice for 5 min before it was centrifuged at 13 000 rcf and 4 °C for 5 min. 160 µL of the supernatant were transferred to 75 µL 2 M KOH to neutralise the solution. The neutralisation step was checked using pH paper and the pH was adjusted if necessary. The solution was kept on ice for another 5 min before it was centrifuged at 13 000 rcf at 4 °C for 5 min. All assays were performed in triplicate. Table 4: Composition of Novo buffer
The influence of galactose was also investigated with the metagenome M1 beta-galactosidase as described before. The determination of the enzyme activity in Novo buffer was conducted with a lactose concentration of 125 mM and 50 mM respectively. To this solutions 125 or 200 mM galactose were added.

[8] = biological target: T1, P. wynnii beta-galactosidase (SEQ ID NO: 1); assay: Influence of glucose and galactose on the enzyme activity, oNPGal assay; type: biochemical; conditions: pH 6.75, 200 mM Galactose, 37 °C, read-out: Relative enzyme activity
Protocol: (§2) The enzyme activity of beta-galactosidase was determined in 1.2 mL scale using oNPGal as substrate at 37 °C. For the assays a final concentration of 25 mM oNPGal dissolved in 100 mM potassium phosphate buffer (pH 6.75 containing 5 mM magnesium chloride) was used. Substrate and enzyme solution were preheated separately. The reaction was performed in a temperature-controlled cuvette using a spectrophotometer by adding enzyme solution to oNPGal solution. The increase of absorbance at 405 nm as result of o-nitrophenol release was measured for 2 min. The activity was calculated from the slope of the straight line.
(§3) Due to the experimental setup (analysis), it was not possible to measure the influence of glucose with the natural substrate lactose.

[9] = test system: Metagenome M1 beta-galactosidase (metagenome beta-galactosidase 3J33 as described in EP 2 530 148 A1); assay: as above; type: biochemical; conditions: 200 mM galactose, 37 °C, substrate oNPGal
Protocol: as §2, §3

[10] = test system: P. barengoltzii beta-galactosidase; conditions: 200 mM galactose, 45 °C, substrate oNPGal; cited from earlier work
[11] = biological target: commercial beta-galactosidase Opti-Lactase (K. lactis) (Kluyveromyces lactis, UniProt P00723); assay: Influence of galactose on the enzyme activity, lactose assay; type: biochemical; conditions: 200 mM galactose, 8 °C, substrate Lactose
Protocol: as §1
(§4) The influence of galactose was investigated with P. wynnii beta-galactosidase and the commercial beta-galactosidase Opti-Lactase (Optiferm GmbH, Oy-Mittelberg (D)). The determination of the enzyme activity in Novo buffer was conducted with a lactose concentration of 125 mM and 50 mM respectively. To this solutions 125 or 200 mM galactose were added. The determination of the enzyme activity was performed as described above.
(§5) First, 125 and 200 mM galactose respectively were added to 125 mM lactose (A). The enzyme activity of the technical enzyme preparation decreased with increasing galactose concentration. An activity of 51.8 % was determined. […] In another experiment 200 mM galactose was added to 50 mM lactose (B). Here, the same effect as in (A) could be observed.

[12] = biological target: T1, P. wynnii beta-galactosidase (SEQ ID NO: 1); assay: as above; type: biochemical; conditions: 8 °C
Protocol: as §1, §4, §5

T1 sequence (A0A098MAF9 1-1042): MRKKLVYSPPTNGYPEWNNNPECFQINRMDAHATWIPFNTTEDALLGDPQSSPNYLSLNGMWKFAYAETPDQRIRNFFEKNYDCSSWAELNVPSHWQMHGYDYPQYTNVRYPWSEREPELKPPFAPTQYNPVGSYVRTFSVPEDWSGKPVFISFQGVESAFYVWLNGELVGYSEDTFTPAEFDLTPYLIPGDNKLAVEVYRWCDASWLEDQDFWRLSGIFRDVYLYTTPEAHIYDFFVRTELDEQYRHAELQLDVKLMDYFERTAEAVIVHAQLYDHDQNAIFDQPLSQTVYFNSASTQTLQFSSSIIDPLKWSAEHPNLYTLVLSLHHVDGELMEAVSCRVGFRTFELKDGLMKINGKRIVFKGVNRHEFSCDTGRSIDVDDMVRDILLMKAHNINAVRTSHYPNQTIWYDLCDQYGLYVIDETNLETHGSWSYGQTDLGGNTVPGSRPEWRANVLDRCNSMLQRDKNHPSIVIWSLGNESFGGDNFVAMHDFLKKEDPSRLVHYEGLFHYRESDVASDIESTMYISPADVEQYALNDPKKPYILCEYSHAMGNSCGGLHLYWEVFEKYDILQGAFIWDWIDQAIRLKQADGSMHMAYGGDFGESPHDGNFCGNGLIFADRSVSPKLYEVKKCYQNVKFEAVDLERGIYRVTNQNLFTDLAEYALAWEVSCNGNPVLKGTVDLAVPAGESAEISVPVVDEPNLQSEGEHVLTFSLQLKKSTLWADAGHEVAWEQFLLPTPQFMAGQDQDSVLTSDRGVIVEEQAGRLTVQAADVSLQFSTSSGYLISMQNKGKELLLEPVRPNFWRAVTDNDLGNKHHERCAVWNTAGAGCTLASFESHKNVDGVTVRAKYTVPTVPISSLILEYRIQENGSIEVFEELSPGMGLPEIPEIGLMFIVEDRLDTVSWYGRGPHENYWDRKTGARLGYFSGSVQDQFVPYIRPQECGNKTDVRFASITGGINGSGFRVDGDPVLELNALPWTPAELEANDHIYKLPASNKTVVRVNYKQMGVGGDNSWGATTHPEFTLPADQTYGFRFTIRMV
Sequence of commercial beta-galactosidase Opti-Lactase (K. lactis) (P00723 whole entry): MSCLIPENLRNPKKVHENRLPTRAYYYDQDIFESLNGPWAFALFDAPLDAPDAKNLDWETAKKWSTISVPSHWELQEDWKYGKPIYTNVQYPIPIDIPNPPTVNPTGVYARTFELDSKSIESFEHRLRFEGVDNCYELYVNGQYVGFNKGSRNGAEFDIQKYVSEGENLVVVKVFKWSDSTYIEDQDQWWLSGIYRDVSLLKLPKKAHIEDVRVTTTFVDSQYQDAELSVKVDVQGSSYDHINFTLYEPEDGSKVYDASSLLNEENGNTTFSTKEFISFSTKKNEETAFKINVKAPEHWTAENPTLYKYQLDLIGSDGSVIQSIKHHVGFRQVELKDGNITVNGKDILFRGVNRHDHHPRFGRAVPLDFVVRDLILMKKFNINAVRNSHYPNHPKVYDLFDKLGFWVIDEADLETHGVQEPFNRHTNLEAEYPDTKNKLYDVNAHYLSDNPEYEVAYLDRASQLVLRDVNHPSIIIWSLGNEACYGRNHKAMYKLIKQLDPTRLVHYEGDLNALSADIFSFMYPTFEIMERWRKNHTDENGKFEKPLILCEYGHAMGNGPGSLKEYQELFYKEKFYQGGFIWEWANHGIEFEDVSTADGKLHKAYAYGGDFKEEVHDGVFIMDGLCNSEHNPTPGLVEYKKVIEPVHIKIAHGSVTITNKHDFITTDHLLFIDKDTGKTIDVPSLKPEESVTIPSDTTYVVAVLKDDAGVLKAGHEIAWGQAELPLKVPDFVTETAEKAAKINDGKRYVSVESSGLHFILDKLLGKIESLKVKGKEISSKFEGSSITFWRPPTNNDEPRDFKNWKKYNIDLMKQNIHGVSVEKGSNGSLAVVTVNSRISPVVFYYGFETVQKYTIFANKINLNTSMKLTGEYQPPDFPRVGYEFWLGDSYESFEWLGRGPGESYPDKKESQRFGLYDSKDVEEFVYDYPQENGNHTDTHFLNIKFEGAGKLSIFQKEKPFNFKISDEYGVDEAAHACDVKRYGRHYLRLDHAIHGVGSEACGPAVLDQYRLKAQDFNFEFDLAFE
Sequence of K. lactis beta-galactosidase (P00723 whole entry): as above

OC[C@H]1O[C@@H](O[C@H]2[C@H](O)[C@@H](O)C(O)O[C@@H]2CO)[C@H](O)[C@@H](O)[C@H]1O (stereo partly drawn) [lactose]
Km [1]: 16 mM | Turnover number (Kcat) [2]: 2.466 s⁻¹ | Km ([3]; Novo buffer): 1.44 mM | Km ([3]; milk + Novo buffer): 2.1 mM | Km ([4]; MOPS buffer, 45 °C): 43.3 mM | Km [4]: 43.3 ± 1.84 mM | Km [5]: 0.34 to 0.52 mM

OC[C@H]1OC(O)[C@H](O)[C@@H](O)[C@H]1O (stereo partly drawn) [galactose, D-galactose]
Influence of galactose (200 mM) [6]: 75 % EA | Relative enzyme activity ([7]; 50 mM lactose + 200 mM galactose): 100% | Relative enzyme activity ([7]; 125 mM lactose + 125 mM galactose): 97% | Relative enzyme activity ([7]; 125 mM lactose + 200 mM galactose): 101% | inhibition by galactose ([7]; 125 or 200 mM galactose, 125 or 50 mM lactose, Novo buffer): did also not have an inhibitory effect | remaining activity at 200000 µM [8]: 118% | Influence of galactose (200 mM) [9]: 100 % EA | Influence of galactose (200 mM) [10]: 43.27 % EA | activity at 200000 µM [11]: 32.5% | activity at 200000 µM ([12]; 200 mM galactose, substrate Lactose): 100% | remaining activity at 200000 µM ([12]; 5 min, 50 mM lactose + 200 mM galactose, Lactose-Assay, read-out: Relative enzyme activity): 110% | remaining activity at 125000 µM ([12]; 5 min, 125 mM lactose + 125 mM galactose, Lactose-Assay, read-out: Relative enzyme activity): 108% | remaining activity at 200000 µM ([12]; 5 min, 125 mM lactose + 200 mM galactose, Lactose-Assay, read-out: Relative enzyme activity): 115% | inhibition by galactose ([12]; galactose up to 200 mM, Novo buffer, lactose as substrate): No inhibition; also recorded: did not have an inhibitory effect
